The values below come from US20160038454A1, “INTRAVENOUS FORMULATIONS OF […] AS IMMUNOMODULATORS AND […] AGENTS” (priority 2013, published 2016).

In one data set the test system is bleomycin-induced PF. The note with it: G. Krishna et al., 2001; cited from earlier work.
Data set [1] is described as follows: Conversion to triptolide using human serum. Format: in vitro ADME. From the text:
(Xia Zhi Lin and Zhen You Lan, Haematologica, 93:14 (2008)).

Data set [2] concerns IL-2 production by Jurkat cells. Briefly: cells. Format: cell-based, human. As to conditions: for pIC50: read-out: Immunosuppression IL-2 (IC50). The procedure:
Test samples can be diluted to 1 mM in complete tissue culture medium. Aliquots are placed in microculture plates coated with anti-CD3 antibody (used to stimulate the production of IL-2 by Jurkat cells), and serial dilutions are prepared so that the final concentration encompass the range of 0.001 to 10,000 nM in log increments. Cells from an exponentially expanding culture of Jurkat human T cell line (#TIB-152 obtained from American Type Culture Collection, Manassas, Va.) are harvested, washed once by centrifugation, re-suspended in complete tissue culture medium, and diluted to a concentration of 2×10^6 cells/ml. A volume of 50 μl of Jurkat cells (1×10^5 cells) is added to wells containing 100 μl of the diluted compounds, 50 μl of PMA (10 ng/ml) is added to each well, and the plates are incubated at 37° C. in a 5% CO2 incubator. After 24 hours, the plates are centrifuged to pellet the cells, 150 μl of supernatant is removed from each well, and the samples are stored at −20° C. The stored supernatants are analyzed for human IL-2 concentration using the Luminex 100 (Luminex Corporation, Austin, Tex.), Luminex microspheres coupled with anti-IL-2 capture antibody, and fluorochrome-coupled anti-IL-2 detection antibody. The data are expressed as pg/ml of IL-2.

The nature of the next data set: in vitro. Format: cell-based, human. The note with it: human; Jurkat cells; test compounds incubated in serum for 24 hrs; read-out: Viability/Cytotoxicity MTT (ED50). As to the method: (§1) Test compounds may be dissolved in DMSO at a concentration of 20 mM. Further dilutions may be done in RPMI1640 medium (GIBCO, Rockville, Md.) supplemented with 10% Fetal Calf Serum (HyClone Laboratories, Logan, Utah).
(§2) Cytotoxicity of the compounds is determined in a standard MTT assay using Cell Proliferation Kit I (#1 465 007, Roche Diagnostics, Mannheim, Germany). Briefly, human T cell lymphoma (Jurkat) cells (4×10^5 per well) are cultured for 24 h, in 96-well tissue culture plates, in the presence of serial three-fold dilutions of test compounds or medium containing the same concentration of DMSO as in the test samples at each dilution point. The cultures are then supplemented with 10 μl/well MTT reagent for 4 h and then with 0.1 ml/well solubilizing reagent for an additional 16 h. Optical density at 570 nm (OD570) is measured on a ThermoScan microplate reader (Molecular Devices, Menlo Park, Calif.).

In data set [3] the test system is human T cell lymphoma (Jurkat) cells. Briefly: in vitro. The class given is cell-based. As to the method: as §1, §2
Data set [4] deals with IL-2 production by Jurkat cells. As to conditions: cited from earlier work.
The test system of data set [5] is human T cell lymphoma (Jurkat) cells. As to conditions: cited from earlier work.
Data set [6] has as its system primary cultured rat mesencephalic neurons. As to conditions: Li et al., 2003; cited from earlier work.
A further data set relates to rat model of PD. As to conditions: 0.5-1 μg/kg; Cheng et al., 2002; cited from earlier work.
The next data set concerns patients with AML. As to conditions: given intravenously; Xia Zhi Lin and Zhen You Lan 2008; cited from earlier work.
Data set [7] in a line: TK: plasma triptolide levels, Calvert study (emulsion). Format: in vivo, rodents. As to conditions: for Plasma Triptolide Concentration: 0.15 mg/kg (emulsion). The procedure:
Triptolide prodrugs are generally believed to be safer than triptolide. […] Triptolide prodrugs as an emulsion formulation are believed to have a toxicokinetic profile characterized by a flat AUC with a minimized Cmax. [In conjunction, it was postulated that a sustained inhibition of RNA polymerase is needed for optimum efficacy which in turn requires a pharmcokinetic profile of constant exposure to drug]. […] The no effect dose (“NOAEL”) of PG796(MRx102) again exceeded 1.5 mg/kg/day intravenously for seven days in rodents confirming the initial results. It is interesting to ask why a prodrug of triptolide would be safer than the natural product itself; while not wishing to be bound by theory, perhaps the answer lies in the pharmacokinetic profile of triptolide administered either directly or released from its carrier, PG796(MRx102). […] It also remained above the therapeutic levels (shown as a thick line without symbols). The difference in the Cmax/AUC profile of PG796(MRx102) vs. triptolide is believed to be due to the physiochemical properties of the lipid prodrug/emulsion formulation combination. In general, triptolide prodrugs having a cLogP greater than 0.5 are more lipid-soluble than water soluble and are expected to take longer to convert to the drug form; such characteristics may yield a flatter conversion profile and less of a drug-release Cmax spike.
TK comparison of triptolide levels in Calvert and SRI studies—Males and Females

Data set [8] relates to primary mesencephalic neuron/glia mixed culture. As to conditions: Li et al., 2004; cited from earlier work.
Data set [9] relates to lipopolysaccharide (LPS)-activated microglial activity. As to conditions: Zhou et al., 2003; cited from earlier work.
Data set [10] has as its target T1, human XPB (also known as ERCC3) (Homo sapiens, UniProt P19447).
T1 sequence (P19447 1-782): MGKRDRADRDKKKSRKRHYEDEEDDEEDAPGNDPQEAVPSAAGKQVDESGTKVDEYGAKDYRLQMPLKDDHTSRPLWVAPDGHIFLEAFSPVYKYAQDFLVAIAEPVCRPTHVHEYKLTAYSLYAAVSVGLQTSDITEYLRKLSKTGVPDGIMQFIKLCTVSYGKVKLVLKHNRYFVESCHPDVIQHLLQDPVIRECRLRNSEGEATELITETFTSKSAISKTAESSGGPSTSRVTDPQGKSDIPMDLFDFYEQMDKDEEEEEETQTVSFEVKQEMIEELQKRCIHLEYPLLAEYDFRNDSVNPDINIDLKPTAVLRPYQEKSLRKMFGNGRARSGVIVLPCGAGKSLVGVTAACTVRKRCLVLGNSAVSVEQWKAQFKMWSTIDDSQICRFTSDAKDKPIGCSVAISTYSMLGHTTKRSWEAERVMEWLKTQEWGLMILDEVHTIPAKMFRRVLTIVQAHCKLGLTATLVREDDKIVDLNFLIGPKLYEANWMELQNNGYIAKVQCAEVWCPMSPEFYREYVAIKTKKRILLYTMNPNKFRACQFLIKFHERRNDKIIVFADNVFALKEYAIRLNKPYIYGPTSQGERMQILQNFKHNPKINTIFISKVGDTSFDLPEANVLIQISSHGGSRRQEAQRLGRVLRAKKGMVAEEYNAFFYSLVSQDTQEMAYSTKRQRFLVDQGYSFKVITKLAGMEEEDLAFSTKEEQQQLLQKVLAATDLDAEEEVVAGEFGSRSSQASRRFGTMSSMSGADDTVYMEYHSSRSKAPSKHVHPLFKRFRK
As to conditions: Titov et al. 2011; cited from earlier work.

The subject of a further data set is PC12 cells. The note with it: cited from earlier work.
Setting [11] is: incubated in human serum compared with mouse serum.
The mark [12] stands for this setting: FIG. 1, triptolide provided alone.

pIC50: −log10 of the molar value. Read-outs that look alike come from different tables or passages of the source.

Regarding 14-succinimide ester of triptolide, the “bleomycin-induced PF” value with bleomycin-induced PF is “block bleomycin-induced PF”.
In the case of `CC(C)[C@]12O[C@H]1[C@@H]1O[C@]13[C@]1(O[C@H]1C[C@H]1C4=C(CC[C@@]13C)C(=O)OC4)[C@@H]2OC(=O)CCC(=O)[O-].[Na+]` [PG490-88Na], the “conversion to triptolide in human serum” value in data set [1] was “incompletely converted”.
In the case of `CC(C)[C@]12O[C@H]1[C@@H]1O[C@]13[C@@]1(OC(=O)O[C@H]21)[C@H](Cl)C[C@H]1C2=C(CC[C@@]13C)C(=O)OC2` [PG762], in data set [2] (Homo sapiens, Jurkat, 24 h), the negative logarithm of the IC50 (pIC50) (as a rule, the negative decadic logarithm of the IC50, by convention in mol/L) is 8.05. The EC50 at 24 h in “in vitro” stood at 60 nM. The “cytotoxic activity in MTT assay (in words)” value in data set [3] (Jurkat cells, comparison with triptolide or PG490-88) is reported as “comparable potency”.
Consider `CC(C)[C@]12O[C@H]1[C@@H]1O[C@]13[C@]1(O[C@H]1C[C@H]1C4=C(CC[C@@]13C)C(=O)OC4)[C@H]2F` [PG763, 14-deoxy-14α-fluoro triptolide], for which the “inhibition of IL-2 (as reported in U.S. application 60/449,976)” value in [4] is “inhibition of IL-2”. In addition, the “cytotoxicity in Jurkat cells (as reported in U.S. application 60/449,976)” value in data set [5] is “cytotoxicity in human T cell lymphoma (Jurkat) cells”.
In the case of `CC(C)[C@]1(O)[C@H](Cl)[C@@H]2O[C@]23[C@]2(O[C@H]2C[C@H]2C4=C(CC[C@@]23C)C(=O)OC4)[C@@H]1O` [Tripchlorolide], the “protection from neurotoxic lesion induced by 1-methyl-4-phenylpyridinium ion” value in data set [6] is given as “protects dopaminergic neurons”. In addition, in the data set on rat model of PD, the “recovery of rats undergoing neurosurgery” value is recorded as “improves recovery”.
Regarding triptolide 14-succinate [PG490-88], the “activity in IL-2 inhibition assay after incubation in human serum vs mouse serum” value in [2] (setting [11]) is “much less active”. Besides, the “activity in MTT assay after incubation in human serum vs mouse serum” value in [3] (setting [11]) is recorded as “much less active”. Also, the “clinical activity in patients with AML” value with patients with AML is recorded as “promising activity”.
As to triptolide [PG490], the “Plasma Triptolide Concentration” value was determined as 0 ng/mL in data set [7] (females, 0 hrs); 74.6 ng/mL in data set [7] (females, 0.25 hrs); 18.4 ng/mL in data set [7] (females, 0.5 hrs); 13.2 ng/mL in data set [7] (females, 1 hrs); 0 ng/mL in [7] (females, 2 hrs); 0 ng/mL in [7] (females, 24 hrs). Also, the “Plasma Triptolide Concentration” value in data set [7] (males, 0 hrs) came out at 0 ng/mL; in data set [7] (males, 0.25 hrs) it was 59.0 ng/mL; in [7] (males, 0.5 hrs), 14.9 ng/mL; in data set [7] (males, 1 hrs), 3.6 ng/mL; in data set [7] (males, 2 hrs), 0 ng/mL; in [7] (males, 24 hrs), 0 ng/mL. In data set [7] (setting [12]), the “triptolide Cmax (in words)” value was “very high Cmax”. Also, the “triptolide in circulation by two hours post-dose” value in data set [7] (setting [12]) is “none remained in circulation”. For the same compound, the pIC50 in data set [2] (Jurkat cells, test compounds incubated in serum for 24 hrs) was 8.40. The “LPS-induced decrease in 3H-dopamine uptake and loss of tyrosine hydroxylase-positive neurons” value in data set [8] is “attenuates”. Further, in data set [9], the “LPS-activated microglial activity (nitrite accumulation, TNF-α and IL-1β release)” value is given as “powerful inhibitory influence”. Also, the “DNA-dependent ATPase activity of XPB” value in data set [10] is reported as “inhibit”. In data set [10], the “binding to human XPB” value is reported as “covalently bind”. In the data set on PC12 cells, the β-amyloid-induced apoptosis result was “markedly inhibit”.
